Data taken from ChEMBL document CHEMBL4359822, “Design, synthesis of 4,5-diazafluorene derivatives and their anticancer activity via targeting telomeric DNA G-quadruplex” (Eur J Med Chem, 2019).
Activity calls are given as the source filed them. The rule behind the calls is not given here.

How the values were obtained:
A549 [1] = assay: Inhibition of cell migration in human A549 cells at 0.1 uM incubated for 48 hrs by wound healing assay relative to control; type: functional; details: A549, 48 h
[2] = Binding affinity to biotinylated Tel-26nt G-rich DNA (unknown origin) at 1:1 ratio of test compound to DNA by SPR analysis
AGS [3] = assay: Antiproliferative activity against human AGS cells at 10 uM incubated for 36 hrs by CCK8 assay; type: functional, cell-based
AGS [4] = assay: Antiproliferative activity against human AGS cells incubated for 36 hrs by CCK8 assay; type: functional, cell-based
A549 [5] = assay: Antiproliferative activity against human A549 cells incubated for 36 hrs by CCK8 assay; type: functional, cell-based; details: A549, 36 h
[6] = Binding affinity to Tel-26nt G-rich DNA (unknown origin) assessed as change in melting temperature at 2 uM by UV-vis spectrophotometry (reference value: 38.33 +/- 0.07 degreeC)
MCF7 [7] = assay: Inhibition of cell migration in human MCF7 cells at 0.1 uM incubated for 48 hrs by wound healing assay relative to control; type: functional; details: MCF7, 48 h
AGS [8] = assay: Inhibition of cell migration in human AGS cells at 0.1 uM incubated for 48 hrs by wound healing assay relative to control; type: functional
[9] = molecular target: Telomerase reverse transcriptase (Homo sapiens) (UniProt O14746); assay: Inhibition of telomerase activity in human A549 cells at 8 uM by TRAP assay relative to control; type: cell-based
Sequence of Telomerase reverse transcriptase (Homo sapiens) (O14746 whole entry): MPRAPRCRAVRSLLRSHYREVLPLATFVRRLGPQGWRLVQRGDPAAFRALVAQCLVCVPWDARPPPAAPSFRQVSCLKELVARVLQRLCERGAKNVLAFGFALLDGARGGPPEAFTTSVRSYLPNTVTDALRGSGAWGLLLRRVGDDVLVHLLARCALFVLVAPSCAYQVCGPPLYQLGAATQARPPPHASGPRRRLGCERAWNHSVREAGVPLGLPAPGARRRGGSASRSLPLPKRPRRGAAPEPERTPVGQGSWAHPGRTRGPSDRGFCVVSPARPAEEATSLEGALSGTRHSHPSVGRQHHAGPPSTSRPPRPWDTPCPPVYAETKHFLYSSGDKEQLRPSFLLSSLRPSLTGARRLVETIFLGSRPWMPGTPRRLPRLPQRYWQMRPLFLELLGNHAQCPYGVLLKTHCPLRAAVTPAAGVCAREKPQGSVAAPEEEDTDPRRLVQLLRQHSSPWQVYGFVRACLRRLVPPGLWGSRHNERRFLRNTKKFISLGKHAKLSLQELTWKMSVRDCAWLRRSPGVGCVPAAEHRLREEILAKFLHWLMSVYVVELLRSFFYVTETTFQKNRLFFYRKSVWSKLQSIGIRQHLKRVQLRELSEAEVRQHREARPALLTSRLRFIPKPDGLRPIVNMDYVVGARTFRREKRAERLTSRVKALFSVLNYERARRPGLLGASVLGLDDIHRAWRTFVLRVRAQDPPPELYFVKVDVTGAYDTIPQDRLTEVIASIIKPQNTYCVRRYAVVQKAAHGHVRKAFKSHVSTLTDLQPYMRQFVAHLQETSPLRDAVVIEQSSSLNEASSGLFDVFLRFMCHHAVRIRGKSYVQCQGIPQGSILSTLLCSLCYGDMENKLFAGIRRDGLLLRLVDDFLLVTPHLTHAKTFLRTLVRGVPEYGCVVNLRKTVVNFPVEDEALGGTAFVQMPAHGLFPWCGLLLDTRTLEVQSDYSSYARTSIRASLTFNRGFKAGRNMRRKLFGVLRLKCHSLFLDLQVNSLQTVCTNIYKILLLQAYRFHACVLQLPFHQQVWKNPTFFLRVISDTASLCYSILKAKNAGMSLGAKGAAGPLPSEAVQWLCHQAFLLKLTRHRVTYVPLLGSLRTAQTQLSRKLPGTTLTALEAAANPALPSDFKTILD

[10] = Selectivity index, ratio of IC50 for human MRC5 cells to IC50 for human MCF7 cells; type: toxicity; details: MRC5 cells versus MCF7 cells, read-out: Ratio IC50
[11] = Binding affinity to Tel-26nt G-rich DNA (unknown origin) at 0.25 :1 to 6 : 1 ratio of test compound to DNA measured after each titration for 15 mins during 24 hrs incubation by circular dichroism analysis
[12] = Binding affinity to biotinylated Tel26nt double stranded DNA (unknown origin) at 1:1 ratio of test compound to DNA by SPR analysis
[13] = Binding affinity to Tel-26nt G-rich DNA (unknown origin) at => 3 uM incubated for 24 hrs by EMSA
[14] = Binding affinity to Tel-26nt G-rich DNA (unknown origin) assessed as change in melting temperature at 4 uM by UV-vis spectrophotometry (reference value: 38.33 +/- 0.07 degreeC)
MCF7 [15] = assay: Inhibition of cell migration in human MCF7 cells at 0.2 uM incubated for 48 hrs by wound healing assay relative to control; type: functional; details: MCF7, 48 h
[16] = Binding affinity to Tel-26nt G-rich DNA (unknown origin) assessed as change in melting temperature by UV-vis spectrophotometry
MCF7 [17] = assay: Antiproliferative activity against human MCF7 cells incubated for 36 hrs by CCK8 assay; type: functional, cell-based; details: MCF7, 36 h
[18] = Binding affinity to biotinylated Tel-26nt G-rich DNA (unknown origin) assessed as association equilibrium constant by SPR analysis
AGS [19] = assay: Inhibition of cell migration in human AGS cells at 0.2 uM incubated for 48 hrs by wound healing assay relative to control; type: functional
HepG2 [20] = assay: Inhibition of cell migration in human HepG2 cells at 0.1 uM incubated for 48 hrs by wound healing assay relative to control; type: functional; details: HepG2, 48 h
[21] = Binding affinity to biotinylated Tel-26nt G-rich DNA (unknown origin) assessed as dissociation rate constant by SPR analysis
[22] = Binding affinity to Tel-26nt G-rich DNA (unknown origin) at 10 uM by UV-Vis spectrophotometric analysis
[23] = Binding affinity to Tel-26nt G-rich DNA (unknown origin) at 12 uM incubated for 24 hrs by EMSA
[24] = Selectivity index, ratio of IC50 for human MRC5 cells to IC50 for human A549 cells; type: toxicity; details: MRC5 cells versus A549 cells, read-out: Ratio IC50
HepG2 [25] = assay: Inhibition of cell migration in human HepG2 cells at 0.4 uM incubated for 48 hrs by wound healing assay relative to control; type: functional; details: HepG2, 48 h
[26] = Selectivity index, ratio of IC50 for human MRC5 cells to IC50 for human HEPG2 cells
[27] = Binding affinity to 26-nt telomeric G-rich RNA (unknown origin) at 24 uM incubated for 24 hrs by EMSA
A549 [28] = assay: Inhibition of cell migration in human A549 cells at 0.2 uM incubated for 48 hrs by wound healing assay relative to control; type: functional; details: A549, 48 h
[29] = Selectivity ratio of binding affinity to biotinylated Tel26nt double stranded DNA (unknown origin) to binding affinity to biotinylated Tel-26nt G-rich DNA (unknown origin)
[30] = Binding affinity to Tel26nt double stranded DNA (unknown origin) at 24 uM incubated for 24 hrs by EMSA
MRC5 = assay: Antiproliferative activity against human MRC5 cells incubated for 36 hrs by CCK8 assay; type: cell-based; details: MRC5, 36 h
[31] = Binding affinity to Tel-26nt G-rich DNA (unknown origin) assessed as change in melting temperature at 8 uM by UV-vis spectrophotometry (reference value: 38.33 +/- 0.07 degreeC)
HepG2 [32] = assay: Inhibition of cell migration in human HepG2 cells at 0.2 uM incubated for 48 hrs by wound healing assay relative to control; type: functional; details: HepG2, 48 h
[33] = Binding affinity to Tel26nt double stranded DNA (unknown origin) at 4 to 16 uM measured after each titration for 15 mins during 24 hrs incubation by circular dichroism analysis
[34] = molecular target: Telomerase reverse transcriptase (Homo sapiens) (UniProt O14746); assay: Inhibition of telomerase activity in human A549 cells at 2 to 8 uM by TRAP assay; type: cell-based
[35] = Binding affinity to Tel-26nt C-rich DNA (unknown origin) at 24 uM incubated for 24 hrs by EMSA
[36] = Binding affinity to biotinylated Tel26nt double stranded DNA (unknown origin) assessed as association rate constant by SPR analysis
[37] = Binding affinity to Tel-26nt mutated-single-stranded DNA (unknown origin) at 24 uM incubated for 24 hrs by EMSA
HepG2 [38] = assay: Antiproliferative activity against human HepG2 cells at 10 uM incubated for 36 hrs by CCK8 assay; type: functional, cell-based
[39] = Binding affinity to Tel-26nt G-rich DNA (unknown origin) incubated for 24 hrs by EMSA
HepG2 [40] = assay: Antiproliferative activity against human HepG2 cells incubated for 36 hrs by CCK8 assay; type: functional, cell-based; details: HepG2, 36 h
AGS [41] = assay: Inhibition of cell migration in human AGS cells at 0.4 uM incubated for 48 hrs by wound healing assay relative to control; type: functional
MCF7 [42] = assay: Antiproliferative activity against human MCF7 cells at 10 uM incubated for 36 hrs by CCK8 assay; type: functional, cell-based
[43] = Binding affinity to biotinylated Tel26nt double stranded DNA (unknown origin) assessed as association equilibrium constant by SPR analysis
[44] = Binding affinity to Tel-26nt G-rich DNA (unknown origin) at 4 to 16 uM measured after each titration for 15 mins during 24 hrs incubation by circular dichroism analysis
[45] = Binding affinity to biotinylated Tel-26nt G-rich DNA (unknown origin) assessed as association rate constant by SPR analysis
[46] = Binding affinity to Tel-26nt mutated-single-stranded DNA (unknown origin) at 4 to 16 uM measured after each titration for 15 mins during 24 hrs incubation by circular dichroism analysis
[47] = Selectivity index, ratio of IC50 for human MRC5 cells to IC50 for human AGS cells; type: toxicity; details: MRC5 cells versus AGS cells, read-out: Ratio IC50
A549 [48] = assay: Antiproliferative activity against human A549 cells at 10 uM incubated for 36 hrs by CCK8 assay; type: functional, cell-based
A549 [49] = assay: Inhibition of cell migration in human A549 cells at 0.4 uM incubated for 48 hrs by wound healing assay relative to control; type: functional; details: A549, 48 h
[50] = Binding affinity to Tel-26nt G-rich DNA (unknown origin) assessed as change in melting temperature at 8 uM by UV-vis spectrophotometry
MCF7 [51] = assay: Inhibition of cell migration in human MCF7 cells at 0.4 uM incubated for 48 hrs by wound healing assay relative to control; type: functional; details: MCF7, 48 h
[52] = Binding affinity to biotinylated Tel26nt double stranded DNA (unknown origin) assessed as dissociation rate constant by SPR analysis
[53] = Binding affinity to Tel-26nt G-rich DNA (unknown origin) assessed as change in melting temperature at 2 uM by UV-vis spectrophotometry

Compound: CN(C)CCCn1cc(C=C2c3cccnc3-c3ncccc32)c(-c2ccc(Br)cc2)n1
- inhibition at 0.1 µM (A549 [1]): 22.3%
- Activity [2]: Active
- growth inhibition (GI) (AGS [3]): Active
- IC50 (AGS [4]): 1.81 µM
- IC50 (A549 [5]): 1.13 µM
- Tm [6]: 48.6 °C
- inhibition at 0.1 µM (MCF7 [7]): 31.9%
- inhibition at 0.1 µM (AGS [8]): 52.2%
- inhibition [9]: 61.7%
- selectivity ratio [10]: 1.46
- Activity [11]: Active
- Activity [12]: inactive
- Activity [13]: Active
- Tm [14]: 53.1 °C
- inhibition at 0.2 µM (MCF7 [15]): 50.3%
- deltaTm [16]: Dose-dependent effect
- IC50 (MCF7 [17]): 5.27 µM
- KA [18]: 7.04 ×10⁷ /M
- inhibition at 0.2 µM (AGS [19]): 71.7%
- inhibition at 0.1 µM (HepG2 [20]): 27.9%
- Kd [21]: 9.49 ×10⁻² /s
- Activity [22]: Active
- Activity [23]: Active
- selectivity ratio [24]: 7.01
- inhibition at 0.4 µM (HepG2 [25]): 69.3%
- Ratio IC50 [26]: 2.21
- Activity [27]: inactive
- inhibition at 0.2 µM (A549 [28]): 61.7%
- Selectivity ratio [29]: > 1000
- Activity [30]: Active
- IC50 (MRC5): 7.92 µM
- Tm [31]: 44.9 °C
- inhibition at 0.2 µM (HepG2 [32]): 49.3%
- Activity [33]: inactive
- inhibition [34]: Active
- Activity [35]: inactive
- Ka [36]: 1.13 ×10³ /M/s
- Activity [37]: inactive
- growth inhibition (GI) (HepG2 [38]): Active
- Activity [39]: Dose-dependent effect
- IC50 (HepG2 [40]): 3.48 µM
- inhibition at 0.4 µM (AGS [41]): 89.8%
- growth inhibition (GI) (MCF7 [42]): Active
- KA [43]: 4.38 ×10⁴ /M
- Activity [44]: Active
- Ka [45]: 6.68 ×10⁶ /M/s
- Activity [46]: inactive
- selectivity ratio [47]: 4.25
- growth inhibition (GI) (A549 [48]): Active
- inhibition at 0.4 µM (A549 [49]): 84.5%
- ΔTm [50]: 24.3 °C
- inhibition at 0.4 µM (MCF7 [51]): 67.3%
- Kd [52]: 2.58 ×10⁻² /s

Compound: CN(C)CCCn1cc(C=C2c3cccnc3-c3ncccc32)c(-c2ccc(Cl)cc2)n1
- inhibition at 0.1 µM (A549 [1]): 21.2%
- growth inhibition (GI) (AGS [3]): Active
- IC50 (AGS [4]): 5.52 µM
- IC50 (A549 [5]): 4.15 µM
- Tm [6]: 45.6 °C
- inhibition at 0.1 µM (MCF7 [7]): 17.9%
- inhibition at 0.1 µM (AGS [8]): 37.5%
- selectivity ratio [10]: 0.83
- Activity [13]: Active
- Tm [14]: 45.7 °C
- inhibition at 0.2 µM (MCF7 [15]): 41.2%
- deltaTm [16]: Dose-dependent effect
- IC50 (MCF7 [17]): 11.8 µM
- inhibition at 0.2 µM (AGS [19]): 56%
- inhibition at 0.1 µM (HepG2 [20]): 19.4%
- ΔTm [53]: 4.82 °C
- selectivity ratio [24]: 2.36
- inhibition at 0.4 µM (HepG2 [25]): 62.3%
- Ratio IC50 [26]: 1.52
- inhibition at 0.2 µM (A549 [28]): 54.5%
- IC50 (MRC5): 9.81 µM
- Tm [31]: 43.4 °C
- inhibition at 0.2 µM (HepG2 [32]): 43.2%
- inhibition [34]: Active
- growth inhibition (GI) (HepG2 [38]): Active
- Activity [39]: Dose-dependent effect
- IC50 (HepG2 [40]): 6.43 µM
- inhibition at 0.4 µM (AGS [41]): 80%
- growth inhibition (GI) (MCF7 [42]): Active
- selectivity ratio [47]: 1.78
- growth inhibition (GI) (A549 [48]): Active
- inhibition at 0.4 µM (A549 [49]): 78%
- inhibition at 0.4 µM (MCF7 [51]): 54.8%
